Consider 3 compounds from publication PMC10800708, “Efficacies and ADME properties of redox active methylene blue and phenoxazine analogues for use in new antimalarial triple drug combinations with amino-artemisinins” (Frontiers in Pharmacology, 2024).

On the set-up of data set [1]: method as in Gibhard et al., 2021. The note with it: murine model, ref Gibhard et al., 2021; cited from earlier work.
Data set [2] relates to multidrug resistant Pf K1 strain. Further details: method as in Wittlin et al., 2013. The settings on record: tritiated hypoxanthine assay; ref Wittlin et al., 2013; read-out: Activity against multidrug resistant Pf K1 strain; cited from earlier work.
Details of data set [3]: method as in Wittlin et al., 2013. The settings on record: ref Wittlin et al., 2013; cited from earlier work.
Data set [4] relates to Chinese Hamster Ovary (CHO) cell line, CHO-K1. The experiment in a line: MTT cytotoxicity assay. Format: cell-based. The method, then: Cytotoxicity assays were conducted against the Chinese Hamster Ovary (CHO) cell line, ATCC CCL-61, strain CHO-K1. […] Cells were grown at 37°C in a humidified atmosphere of 5% CO2 and maintained by passage. Cells lines were seeded in 96-well microtitre plates at 10^4 cells/well in cell medium. […] DMSO (100 µL) was added to dissolve the MTT formazan precipitate, and the plates were gently agitated for 2 min to ensure homogeneity. Absorbance was measured at 540 nm using a Turner BioSystems, Inc. ModulusTM II Microplate Reader. The data were analyzed by nonlinear regression analysis using the GraphPad PRISM version 5.00 program to determine the IC50 of each compound.

Data set [5] concerns Plasmodium falciparum NF54. As to the kind of experiment: Parasite lactate dehydrogenase (pLDH) assay over 72 h, CQ-sensitive strain. Format: cell-based. The note with it: CQ-sensitive NF54, pLDH 72 h, n = 3, read-out: Plasmodium falciparum IC50 NF54. The method, then:
(§1) The assay was performed in quadruplicate. The data were analyzed by nonlinear regression analysis using the GraphPad PRISM version 5.00 program to determine the IC50 of each compound.

The subject of data set [6] is Plasmodium falciparum DD2. As to the kind of experiment: Parasite lactate dehydrogenase (pLDH) assay over 72 h, CQ-resistant strain. Format: cell-based. On the procedure: as §1

What is called half-life is how long it takes for the measured level to halve.

As to `C[C@H]1[C@H](N2CCSCC2)O[C@@H]2O[C@@]3(C)CC[C@H]4[C@H](C)CC[C@@H]1[C@@]24OO3` [artemiside], the “Cmax relative to that after oral administration of artemisone” value in data set [1] is on record as 2.6 fold.
For the compound `CCN(CC)c1ccc2nc3c4ccccc4/c(=N\c4ccncc4)cc-3oc2c1` [SSJ-183], the IC50 in data set [2] is 7.6 nM. In data set [3], the half-life is recorded as 10.3 h.
As for `C[C@H]1[C@H](N2CCS(=O)(=O)CC2)O[C@@H]2O[C@@]3(C)CC[C@H]4[C@H](C)CC[C@@H]1[C@@]24OO3` [AMS, artemisone], the IC50 in data set [4] (Cricetulus griseus, CHO cells, MTT) was more than 249000 nM; in data set [5], 4.5 ± 2.42 nM; in data set [6] (Plasmodium falciparum, CQ-resistant DD2, pLDH 72 h, n = 3, read-out: Plasmodium falciparum IC50 DD2), 5.48 ± 2.03 nM. Besides, the “Selectivity index CHO/resistant Pf strain” value in data set [4] (cytotoxicity IC50/activity IC50, CHO/DD2) is reported as >1,000. Also, the “Selectivity index CHO/sensitive Pf strain” value in data set [4] (cytotoxicity IC50/activity IC50, CHO/NF54) was >1,000. In data set [6] (IC50 (resistant strain)/IC50 (sensitive strain), DD2/NF54), the Resistance index turned out to be 1.2.
